Source: patent US20100063035A1, “CARBONIC ANHYDRASE INHIBITORS DERIVATIVES” (Nicox S.A., priority 2006, published 2010)

How the values were obtained:
hCA I = hCA I (Homo sapiens, UniProt P00915); assay: Carbonic anhydrase inhibition, stopped-flow CO2 hydration assay, isoenzyme CA I
Experimental: (§1) An SX.18MV-R Applied Photophysics stopped flow instrument was used for assaying the CA CO2 hydration activity. […] The buffer solution was constituted by 10 mM HEPES, 0.1 M Na2SO4, and TRIZMA hydrochloride 0.01 M, adjusting the pH solution at 7.5 with NaOH (0.1 M). […] Satured CO2 solution in bidistilled water at 20° C. was used as substrate.
(§2) Stock solutions of inhibitor (1 mM) were prepared with buffer solution with 10-20% (v/v) DMSO, and dilutions up to 0.1 nM. To allow for the formation of the E-1 complex, inhibitor and enzyme solutions were preincubated during 15 min at room temperature prior to assay. Enzyme concentration was 0.1 μM for CA I and II, 10 μM for CA IV. The human CA I and CA II are commercially available, whereas hCA IV (tumor) is cloned isoform.
Each experiment was done in triplicate.

hCA IV = hCA IV (Homo sapiens, UniProt P22748); assay: Carbonic anhydrase inhibition, stopped-flow CO2 hydration assay, isoenzyme CA IV
Experimental: as §1, §2
Each experiment was done in triplicate.

hCA II = hCA II (Homo sapiens, UniProt P00918); assay: Carbonic anhydrase inhibition, stopped-flow CO2 hydration assay, isoenzyme CA II
Experimental: as §1, §2
Each experiment was done in triplicate.

Sequence of hCA I (P00915 whole entry): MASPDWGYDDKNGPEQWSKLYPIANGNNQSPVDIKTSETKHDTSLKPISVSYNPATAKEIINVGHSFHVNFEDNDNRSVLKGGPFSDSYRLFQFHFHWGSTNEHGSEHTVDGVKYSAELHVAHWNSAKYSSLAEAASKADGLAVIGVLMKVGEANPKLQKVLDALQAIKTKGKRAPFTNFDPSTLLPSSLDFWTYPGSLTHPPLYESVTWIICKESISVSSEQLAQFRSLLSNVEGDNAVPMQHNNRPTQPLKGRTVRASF
Sequence of hCA IV (P22748 19-284 limits assumed): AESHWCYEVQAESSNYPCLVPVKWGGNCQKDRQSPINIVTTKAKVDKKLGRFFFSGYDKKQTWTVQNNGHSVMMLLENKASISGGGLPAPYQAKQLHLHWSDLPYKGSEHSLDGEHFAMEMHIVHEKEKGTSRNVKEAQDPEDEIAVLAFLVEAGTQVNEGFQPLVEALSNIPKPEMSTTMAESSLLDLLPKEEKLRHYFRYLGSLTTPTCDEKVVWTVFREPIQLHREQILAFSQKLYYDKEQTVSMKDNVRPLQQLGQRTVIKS

Ki (hCA I) [µM]	Ki (hCA IV) [µM]	Ki (hCA II) [µM]	Compound
15	3.4	0.251	CCN[C@H]1CC(C)S(=O)(=O)c2sc(S(=O)(=O)NC(=O)CCCCCO[N+](=O)[O-])cc21 (stereo partly drawn) [Ex. 1, (4S-trans)-4-(ethylamino)-5,6-dihydro-6-methyl-4H-thieno[2,3-b]thiopyran-2-sulfonylamido-N((6-nitrooxy)hexanoyl)-7,7-dioxide]
42.3	0.411	0.886	CCN[C@H]1CC(C)S(=O)(=O)c2sc(S(=O)(=O)NC(=O)OCCCCO[N+](=O)[O-])cc21 (stereo partly drawn) [Ex. 7, (4S-trans)-4-(ethylamino)-5,6-dihydro-6-methyl-4H-thieno[2,3-b]thiopyran-2-sulfonylamido-N-(4-(nitrooxy)butyloxycarbonyl)-7,7-dioxide]
